Consider 20 molecules from EP1496060B1, “Antitumoral analogs of ET-743” (PHARMA MAR, S.A., priority 2000, dated 2001).

The test system of one data set is A-549. Nature of the data set: Cytotoxic activity, IC50, A-549. Format: cell-based. The settings on record: Homo sapiens, A549.
Another data set relates to HT-29. The data set is described as follows: Cytotoxic activity, IC50, HT-29. It counts as cell-based. Conditions: Homo sapiens.
In another data set the test system is DU-145. The data set is described as follows: Cytotoxic activity, IC50, DU-145. It counts as cell-based. Conditions: Homo sapiens.
The test system of a further data set is P-388. The data set is described as follows: Cytotoxic activity, IC50, P-388. Format: cell-based. Conditions: Mus musculus, P388.
The test system of another data set is MEL-28. The data set is described as follows: Cytotoxic activity, IC50, MEL-28. Conditions: Homo sapiens, SK-MEL-28. Format: cell-based.
The test system of another data set is RAMOS. Conditions: ramos cells.

`C/C=C/C(=O)NC[C@H]1c2c(c(OC(C)=O)c(C)c3c2OCO3)C[C@H]2[C@H]3c4c(cc(C)c(OC)c4O)C[C@@H]([C@H](C#N)N12)N3C`: the figures for the half-maximal inhibitory concentration (IC50) in the data set with A-549, in the data set on HT-29 and in the data set with DU-145 were 0.0008 µM, 0.0001 µM and 0.0008 µM, respectively.
Regarding `COc1c(C)cc2c(c1O)[C@@H]1[C@@H]3Cc4c(OC(C)=O)c(C)c5c(c4[C@H](CNC(=O)CCc4ccccc4)N3[C@@H](O)[C@H](C2)N1C)OCO5`, the half-inhibitory concentration (IC50) in the data set on HT-29 and with DU-145 was 0.0001 µM in each case.
Consider `COc1c(C)cc2c(c1O)[C@@H]1[C@@H]3Cc4c(OC(C)=O)c(C)c5c(c4[C@H](CNC(=O)Cc4ccccc4)N3[C@@H](O)[C@H](C2)N1C)OCO5`, for which the 50% inhibitory concentration (IC50) in the data set with P-388, in the data set with A-549, with MEL-28, in the data set with HT-29 and in the data set with DU-145 was 0.0007 µM in each case.
Consider `COCOc1c(OC)c(C)cc2c1C1C3Cc4c(OC(C)=O)c(C)c5c(c4C(COC(=O)C=Cc4ccccc4)N3C(C#N)C(C2)N1C)OCO5` (centres unmarked), for which the IC50 in the data set on A-549, in the data set with MEL-28, with HT-29 and in the data set with DU-145 was 0.07 µM each time.
Consider `CCCC(=O)OCC1c2c(c(OC(C)=O)c(C)c3c2OCO3)CC2C3c4c(cc(C)c(OC)c4O)CC(C(C#N)N12)N3C` (centres unmarked), for which the IC50 with A-549, in the data set with HT-29 and in the data set with DU-145 was 0.0008 µM in each case.
Consider `COc1c(C)cc2c(c1O)C1C3Cc4c(OC(C)=O)c(C)c5c(c4C(COC(=O)CCc4ccccc4)N3C(C#N)C(C2)N1C)OCO5` (centres unmarked), for which the IC50 in the data set with HT-29 and in the data set with DU-145 was 0.0001 µM in each case.
In the case of `COc1c(C)cc2c(c1O)C1C3Cc4c(OC(C)=O)c(C)c5c(c4C(COC(=O)C=Cc4ccccc4)N3C(C#N)C(C2)N1C)OCO5` (centres unmarked), the IC50 in the data set on P-388, in the data set on A-549, in the data set with MEL-28, with HT-29 and with DU-145 was 0.0007 µM each time.
As to `CCCC(=O)OCC1c2c(c(OC(C)=O)c(C)c3c2OCO3)CC2C3c4c(cc(C)c(OC)c4O)CC(C(O)N12)N3C` (centres unmarked), the IC50 in the data set on HT-29 and in the data set on DU-145 was 0.0001 µM each time.
Consider `COc1c(C)cc2c(c1O)C1C3Cc4c(OC(C)=O)c(C)c5c(c4C(COC(=O)C=Cc4cccc(C(F)(F)F)c4)N3C(O)C(C2)N1C)OCO5` (centres unmarked), for which the IC50 in the data set on HT-29 and in the data set on DU-145 was 0.0001 µM throughout.
As to `COc1c(C)cc2c(c1O)C1C3Cc4c(OC(C)=O)c(C)c5c(c4C(COC(=O)CCc4ccccc4)N3C(O)C(C2)N1C)OCO5` (centres unmarked), the IC50 in the data set on HT-29 and in the data set with DU-145 was 0.0001 µM throughout.
`COc1c(C)cc2c(c1O)C1C3Cc4c(OC(C)=O)c(C)c5c(c4C(COC(=O)C=Cc4ccccc4)N3C(O)C(C2)N1C)OCO5` (centres unmarked): the IC50 with A-549, in the data set on MEL-28, in the data set with HT-29 and with DU-145 was 0.0007 µM each time.
As to `COc1c(C)cc2c(c1O)C1C3Cc4c(OC(C)=O)c(C)c5c(c4C(CNC(=O)C(CCCNC(=N)N)NC(=O)OC(C)(C)C)N3C(C#N)C(C2)N1C)OCO5` (centres unmarked), the IC50 in the data set on A-549 and in the data set on HT-29 was over 1 µM each time.
For `COc1c(C)cc2c(c1O)C1C3Cc4c(OC(C)=O)c(C)c5c(c4C(CNC(=O)C(Cc4c[nH]c6ccccc46)NC(=O)OC(C)(C)C)N3C(O)C(C2)N1C)OCO5` (centres unmarked), it took 0.012 µM to reach half-maximal inhibition in the data set with HT-29 (IC50).
Regarding `COc1c(C)cc2c(c1O)C1C3Cc4c(OC(C)=O)c(C)c5c(c4C(CNC(=O)c4cccnc4Cl)N3C(C#N)C(C2)N1C)OCO5` (centres unmarked), the IC50 in the data set on HT-29 was 0.00015 µM.
In the case of `COc1c(C)cc2c(c1O)C1C3Cc4c(OC(C)=O)c(C)c5c(c4C(CNC(=O)c4cccnc4Cl)N3C(O)C(C2)N1C)OCO5` (centres unmarked), in the data set on HT-29, the IC50 worked out at 0.00015 µM.
On the same count and under the same terms, in the case of `COc1c(C)cc2c(c1O)C1C3Cc4c(OC(C)=O)c(C)c5c(c4C(CNC(=O)CC4CCCCC4)N3C(C#N)C(C2)N1C)OCO5` (centres unmarked) it was 0.0015 µM.
As for `COc1c(C)cc2c(c1OC(=O)CC1CCCCC1)C1C3Cc4c(OC(C)=O)c(C)c5c(c4C(CNC(=O)CC4CCCCC4)N3C(C#N)C(C2)N1C)OCO5` (centres unmarked), in the data set on HT-29, the IC50 was 0.013 µM.
The same measure, in the same setting: next, `COc1c(C)cc2c(c1O)C1C3Cc4c(OC(C)=O)c(C)c5c(c4C(CNC(=O)CCC4CCCCC4)N3C(C#N)C(C2)N1C)OCO5` (centres unmarked): 0.0015 µM; `COc1c(C)cc2c(c1OC(=O)CCC1CCCCC1)C1C3Cc4c(OC(C)=O)c(C)c5c(c4C(CNC(=O)CCC4CCCCC4)N3C(C#N)C(C2)N1C)OCO5` (centres unmarked): 0.12 µM.
In turn, `COc1c(C)cc2c(c1O)[C@@H]1[C@@H]3Cc4c(OC(C)=O)c(C)c5c(c4[C@H](COC(=O)CCc4ccccc4)N3[C@@H](O)[C@H](C2)N1C)OCO5` yielded an IC50 with RAMOS of 1.86 nM.

As usually defined, the IC50 is the point on the concentration scale where inhibition reaches its midpoint.
